From patent US20090124651A1, “CATECHOLAMINE DERIVATIVES AND PRODRUGS THEREOF” (H. LUNDBECK A/S, priority 2007, published 2009)

Experiments:
[1] = test system: motility deficits; assay: Superiority model: mouse model of severe dopamine depletion; format: in vivo
Source text: Both Apomorphine and L-DOPA stimulate D1 and D2-like dopamine receptors.

[2] = test system: Parkinson's disease; conditions: PD patients, intravenous (IV); cited from earlier work
[3] = man, oral dosing; cited from earlier work

| SMILES | reversal of motility deficits / restoration of locomotion [1] | antiparkinson efficacy [2] | oral bioavailability [3] [%] |
| --- | --- | --- | --- |
| N[C@@H](Cc1ccc(O)c(O)c1)C(=O)O [L-DOPA, (levo)-3,4-dihydroxy phenylalanine] | able to reverse motility deficits |  |  |
| CN1CCc2cccc3c2[C@H]1Cc1ccc(O)c(O)c1-3 [Apomorphine] | able to reverse motility deficits |  |  |
| CCCc1cc2c(s1)CN[C@@H]1CCc3cc(OC(C)=O)c(OC(C)=O)cc3[C@@H]21 [Adrogolide] |  | comparable to that of L-DOPA | ~4 |
